Data as given in ChEMBL document CHEMBL1909046, “DrugMatrix in vitro pharmacology data”.

Assays:
[1] = DRUGMATRIX: GABAA, Muscimol, Central radioligand binding (ligand: [3H] Muscimol); assay type: cell membranes, Rattus norvegicus, Wistar, Brain, Membrane; details: Not Active = under 50% inhibition at 10 µM
Nitric oxide synthase 1 = Nitric oxide synthase 1 (Rattus norvegicus, UniProt P29476); assay type: tissue-based, Cerebellum; note: in other assays of this panel Not Active means under 50% inhibition at 10 µM
B2 bradykinin receptor = molecular target: T1, B2 bradykinin receptor (Homo sapiens, UniProt P30411); assay type: cell membranes, Membrane; details: chem-1; note: in other assays of this panel Not Active means under 50% inhibition at 10 µM
T1 sequence (P30411 whole entry): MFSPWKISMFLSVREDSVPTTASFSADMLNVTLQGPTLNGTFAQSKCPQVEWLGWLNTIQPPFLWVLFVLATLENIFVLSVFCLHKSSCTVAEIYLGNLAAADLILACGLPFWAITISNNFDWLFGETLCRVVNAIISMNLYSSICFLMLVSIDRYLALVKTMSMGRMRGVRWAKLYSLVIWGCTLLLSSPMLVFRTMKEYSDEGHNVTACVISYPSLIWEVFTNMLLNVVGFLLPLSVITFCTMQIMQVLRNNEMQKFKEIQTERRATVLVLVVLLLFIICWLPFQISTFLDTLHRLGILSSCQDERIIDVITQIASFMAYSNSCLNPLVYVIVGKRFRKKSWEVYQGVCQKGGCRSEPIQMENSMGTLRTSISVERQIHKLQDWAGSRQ

[2] = molecular target: Mitogen-activated protein kinase 3 (Homo sapiens, UniProt P27361); experiment: DRUGMATRIX: Protein Serine/Threonine Kinase, ERK1 enzyme inhibition (substrate: Myelin Basic Protein); design: species or system Escherichia coli; details: Not Active = under 50% inhibition at 10 µM
Adenosine receptor A3 = molecular target: T2, Adenosine receptor A3 (Homo sapiens, UniProt P0DMS8); assay type: cell membranes, CHO-K1, Membrane; details: cho-k1;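 note: radioligand binding assay with AB-MECA serving as the labeled ligand; in other assays of this panel Not Active means under 50% inhibition at 10 µM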
T2 sequence (P0DMS8 whole entry): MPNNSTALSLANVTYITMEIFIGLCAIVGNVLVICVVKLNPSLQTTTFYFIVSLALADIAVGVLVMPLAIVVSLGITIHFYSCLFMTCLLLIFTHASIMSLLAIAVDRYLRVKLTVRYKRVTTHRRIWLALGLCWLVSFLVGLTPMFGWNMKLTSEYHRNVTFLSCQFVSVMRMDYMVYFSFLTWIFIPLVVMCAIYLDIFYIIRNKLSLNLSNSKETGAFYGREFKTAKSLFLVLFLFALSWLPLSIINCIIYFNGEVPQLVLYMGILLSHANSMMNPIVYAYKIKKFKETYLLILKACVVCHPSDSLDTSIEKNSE

[3] = molecular target: Sodium-dependent noradrenaline transporter (Homo sapiens, UniProt P23975); experiment: DRUGMATRIX: Norepinephrine Transporter radioligand binding (ligand: [125I] RTI-55); assay type: cell membranes, MDCK, Membrane; details: mdck; Not Active = under 50% inhibition at 10 µM
[4] = molecular target: T3, Muscarinic acetylcholine receptor M2 (Homo sapiens, UniProt P08172); assay type: cell membranes, CHO-K1, Membrane; details: cho-k1; note: in other assays of this panel Not Active means under 50% inhibition at 10 µM
T3 sequence (P08172 whole entry): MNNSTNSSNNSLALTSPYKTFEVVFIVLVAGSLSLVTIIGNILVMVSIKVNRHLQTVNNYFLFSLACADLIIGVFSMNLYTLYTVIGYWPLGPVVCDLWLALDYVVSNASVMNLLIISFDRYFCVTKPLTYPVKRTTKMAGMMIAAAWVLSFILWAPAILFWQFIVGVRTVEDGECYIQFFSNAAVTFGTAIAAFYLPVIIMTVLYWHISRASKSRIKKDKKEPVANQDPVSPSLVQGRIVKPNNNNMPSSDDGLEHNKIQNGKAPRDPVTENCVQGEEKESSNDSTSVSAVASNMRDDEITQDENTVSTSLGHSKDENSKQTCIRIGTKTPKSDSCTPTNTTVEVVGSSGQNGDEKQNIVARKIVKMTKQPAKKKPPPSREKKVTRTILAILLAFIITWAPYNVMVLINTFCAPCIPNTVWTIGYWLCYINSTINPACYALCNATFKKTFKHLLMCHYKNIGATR

[5] = molecular target: Delta-type opioid receptor (Homo sapiens, UniProt P41143); assay type: cell membranes, HEK293, Membrane; details: hek293; note: in other assays of this panel Not Active means under 50% inhibition at 10 µM
Cytochrome P450 2D6 = Cytochrome P450 2D6 (Homo sapiens, UniProt P10635); details: bti-tn-5b1-4; note: in other assays of this panel Not Active means under 50% inhibition at 10 µM
[6] = molecular target: T4, Muscarinic acetylcholine receptor M5 (Homo sapiens, UniProt P08912); assay type: cell membranes, CHO-K1, Membrane; details: cho-k1; note: in other assays of this panel Not Active means under 50% inhibition at 10 µM
T4 sequence (P08912 whole entry): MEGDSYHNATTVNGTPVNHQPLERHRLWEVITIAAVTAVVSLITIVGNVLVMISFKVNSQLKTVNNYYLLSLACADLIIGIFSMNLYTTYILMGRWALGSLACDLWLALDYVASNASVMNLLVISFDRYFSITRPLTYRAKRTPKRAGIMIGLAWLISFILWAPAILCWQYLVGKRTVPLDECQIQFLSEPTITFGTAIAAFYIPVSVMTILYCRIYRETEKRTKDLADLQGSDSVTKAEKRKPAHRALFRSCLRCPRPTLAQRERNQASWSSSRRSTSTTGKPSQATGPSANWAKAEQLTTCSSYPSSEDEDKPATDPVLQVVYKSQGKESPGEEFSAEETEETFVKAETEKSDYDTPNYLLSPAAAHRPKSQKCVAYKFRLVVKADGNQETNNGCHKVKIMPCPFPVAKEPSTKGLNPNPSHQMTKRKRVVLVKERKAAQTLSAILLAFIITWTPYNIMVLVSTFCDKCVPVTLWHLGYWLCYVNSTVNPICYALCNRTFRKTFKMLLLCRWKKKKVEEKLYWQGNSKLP

[7] = molecular target: T5, Neuropeptide Y receptor type 1 (Homo sapiens, UniProt P25929); assay type: cell membranes, Membrane; details: sk-n-mc; note: in other assays of this panel Not Active means under 50% inhibition at 10 µM
T5 sequence (P25929 whole entry): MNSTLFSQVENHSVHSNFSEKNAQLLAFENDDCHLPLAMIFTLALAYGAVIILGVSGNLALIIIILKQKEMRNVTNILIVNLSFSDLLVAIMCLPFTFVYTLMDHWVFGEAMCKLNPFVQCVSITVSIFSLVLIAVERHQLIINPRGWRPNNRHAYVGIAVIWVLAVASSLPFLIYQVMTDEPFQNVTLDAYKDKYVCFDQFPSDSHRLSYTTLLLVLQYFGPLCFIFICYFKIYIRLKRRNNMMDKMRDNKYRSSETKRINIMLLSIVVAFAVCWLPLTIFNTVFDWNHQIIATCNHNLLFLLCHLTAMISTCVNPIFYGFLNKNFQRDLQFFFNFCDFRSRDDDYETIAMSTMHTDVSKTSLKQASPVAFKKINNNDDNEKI

Chain of Cytochrome P450 2D6 (P10635 whole entry): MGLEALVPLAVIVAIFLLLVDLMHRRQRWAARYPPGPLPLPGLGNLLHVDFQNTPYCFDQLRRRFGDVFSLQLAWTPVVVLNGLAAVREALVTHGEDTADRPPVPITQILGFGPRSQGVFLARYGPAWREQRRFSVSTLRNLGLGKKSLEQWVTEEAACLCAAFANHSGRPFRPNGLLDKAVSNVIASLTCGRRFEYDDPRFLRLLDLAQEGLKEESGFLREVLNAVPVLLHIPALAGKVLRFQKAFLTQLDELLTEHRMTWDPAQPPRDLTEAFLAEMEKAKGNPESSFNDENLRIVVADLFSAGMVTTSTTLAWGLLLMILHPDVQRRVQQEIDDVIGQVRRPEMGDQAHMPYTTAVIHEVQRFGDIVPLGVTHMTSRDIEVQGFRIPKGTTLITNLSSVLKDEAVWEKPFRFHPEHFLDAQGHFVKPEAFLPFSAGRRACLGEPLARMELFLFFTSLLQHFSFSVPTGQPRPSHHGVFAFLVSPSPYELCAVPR
Chain of Mitogen-activated protein kinase 3 (P27361 whole entry): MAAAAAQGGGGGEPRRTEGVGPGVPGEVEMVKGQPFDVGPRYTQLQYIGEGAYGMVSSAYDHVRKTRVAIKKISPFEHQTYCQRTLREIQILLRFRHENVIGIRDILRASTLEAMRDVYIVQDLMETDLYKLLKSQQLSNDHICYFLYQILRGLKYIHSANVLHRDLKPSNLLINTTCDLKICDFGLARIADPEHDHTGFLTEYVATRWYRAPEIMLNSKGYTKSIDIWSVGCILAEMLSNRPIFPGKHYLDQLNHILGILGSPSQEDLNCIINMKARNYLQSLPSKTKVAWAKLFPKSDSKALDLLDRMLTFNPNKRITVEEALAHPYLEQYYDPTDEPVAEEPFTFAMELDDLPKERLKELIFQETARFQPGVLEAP
Chain of Delta-type opioid receptor (P41143 whole entry): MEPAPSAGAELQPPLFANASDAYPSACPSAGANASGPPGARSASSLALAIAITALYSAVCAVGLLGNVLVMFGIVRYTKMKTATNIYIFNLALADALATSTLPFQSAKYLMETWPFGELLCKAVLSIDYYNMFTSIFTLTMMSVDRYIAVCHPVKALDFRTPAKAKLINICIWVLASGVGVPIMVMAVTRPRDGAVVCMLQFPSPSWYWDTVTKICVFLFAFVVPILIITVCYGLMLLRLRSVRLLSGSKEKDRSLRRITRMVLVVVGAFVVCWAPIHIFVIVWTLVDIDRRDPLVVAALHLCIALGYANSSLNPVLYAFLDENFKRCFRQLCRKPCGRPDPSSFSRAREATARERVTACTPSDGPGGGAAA
Chain of Nitric oxide synthase 1 (P29476 whole entry): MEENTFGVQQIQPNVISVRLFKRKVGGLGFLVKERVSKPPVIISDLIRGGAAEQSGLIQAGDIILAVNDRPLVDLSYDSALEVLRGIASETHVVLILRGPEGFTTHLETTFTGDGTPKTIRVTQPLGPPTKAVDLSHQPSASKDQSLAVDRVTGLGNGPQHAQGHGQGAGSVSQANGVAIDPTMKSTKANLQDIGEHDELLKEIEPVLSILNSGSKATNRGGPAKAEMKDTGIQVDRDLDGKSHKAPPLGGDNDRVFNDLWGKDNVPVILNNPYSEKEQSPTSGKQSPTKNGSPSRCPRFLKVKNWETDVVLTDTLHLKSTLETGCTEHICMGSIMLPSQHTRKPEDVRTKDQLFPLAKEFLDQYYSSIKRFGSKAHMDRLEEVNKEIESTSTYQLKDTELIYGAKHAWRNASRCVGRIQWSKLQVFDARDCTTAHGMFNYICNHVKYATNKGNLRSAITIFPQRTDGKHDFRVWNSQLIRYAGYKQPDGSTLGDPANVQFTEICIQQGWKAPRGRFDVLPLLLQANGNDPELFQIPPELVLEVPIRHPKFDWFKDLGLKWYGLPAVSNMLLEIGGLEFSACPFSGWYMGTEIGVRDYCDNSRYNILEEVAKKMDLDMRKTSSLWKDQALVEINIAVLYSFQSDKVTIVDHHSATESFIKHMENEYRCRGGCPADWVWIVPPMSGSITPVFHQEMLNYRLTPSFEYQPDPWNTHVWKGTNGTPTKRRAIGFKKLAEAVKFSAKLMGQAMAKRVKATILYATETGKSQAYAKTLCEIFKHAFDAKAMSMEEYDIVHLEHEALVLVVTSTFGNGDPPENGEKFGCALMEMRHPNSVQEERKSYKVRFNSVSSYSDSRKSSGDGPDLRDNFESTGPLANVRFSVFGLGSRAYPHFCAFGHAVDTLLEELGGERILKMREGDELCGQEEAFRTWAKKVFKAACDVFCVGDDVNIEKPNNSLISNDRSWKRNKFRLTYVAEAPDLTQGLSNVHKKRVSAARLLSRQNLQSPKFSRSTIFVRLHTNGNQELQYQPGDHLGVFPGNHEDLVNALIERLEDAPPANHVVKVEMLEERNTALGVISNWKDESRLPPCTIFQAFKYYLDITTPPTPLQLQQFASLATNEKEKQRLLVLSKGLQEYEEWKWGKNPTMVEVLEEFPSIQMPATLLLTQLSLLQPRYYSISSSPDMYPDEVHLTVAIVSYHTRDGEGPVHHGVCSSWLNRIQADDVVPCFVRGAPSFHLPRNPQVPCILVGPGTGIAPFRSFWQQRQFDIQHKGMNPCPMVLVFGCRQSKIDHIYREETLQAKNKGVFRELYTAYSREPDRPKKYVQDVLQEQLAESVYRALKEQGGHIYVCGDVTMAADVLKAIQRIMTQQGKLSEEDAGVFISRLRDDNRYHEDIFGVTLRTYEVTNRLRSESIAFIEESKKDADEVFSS
Chain of Sodium-dependent noradrenaline transporter (P23975 whole entry): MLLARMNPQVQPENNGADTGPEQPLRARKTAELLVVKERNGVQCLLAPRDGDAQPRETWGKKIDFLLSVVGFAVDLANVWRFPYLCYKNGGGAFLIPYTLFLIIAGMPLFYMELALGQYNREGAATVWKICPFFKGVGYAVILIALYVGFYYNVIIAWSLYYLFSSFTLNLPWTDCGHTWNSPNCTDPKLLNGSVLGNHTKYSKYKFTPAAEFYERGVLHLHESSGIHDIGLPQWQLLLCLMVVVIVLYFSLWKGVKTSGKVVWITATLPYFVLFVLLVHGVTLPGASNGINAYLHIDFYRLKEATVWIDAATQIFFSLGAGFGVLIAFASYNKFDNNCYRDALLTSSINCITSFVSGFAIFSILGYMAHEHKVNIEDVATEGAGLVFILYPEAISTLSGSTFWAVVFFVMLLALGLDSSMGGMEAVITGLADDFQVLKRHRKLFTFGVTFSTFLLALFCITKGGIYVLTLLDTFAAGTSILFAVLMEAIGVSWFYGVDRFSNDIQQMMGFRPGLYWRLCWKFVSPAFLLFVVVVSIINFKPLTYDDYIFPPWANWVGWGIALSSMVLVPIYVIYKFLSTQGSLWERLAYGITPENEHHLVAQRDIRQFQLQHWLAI

CC1=Nc2ccc(Cl)cc2S(=O)(=O)N1 [DIAZOXIDE]
Not Active: IC50 [1] | Ki [1] | IC50 (Nitric oxide synthase 1) | IC50 (B2 bradykinin receptor) | IC50 [2] | IC50 (Adenosine receptor A3) | IC50 [3] | IC50 [4] | IC50 [5] | IC50 (Cytochrome P450 2D6) | Ki (Cytochrome P450 2D6) | IC50 [6] | IC50 [7]

CC(=O)OCC(=O)[C@@]1(OC(C)=O)[C@@H](C)C[C@H]2[C@@H]3C[C@H](F)C4=CC(=O)C=C[C@]4(C)[C@@]3(F)[C@@H](O)C[C@@]21C [DIFLORASONE DIACETATE]
Not Active: IC50 [1] | Ki [1] | IC50 (Nitric oxide synthase 1) | IC50 (B2 bradykinin receptor) | IC50 [2] | IC50 (Adenosine receptor A3) | IC50 [3] | IC50 [4] | IC50 [5] | IC50 (Cytochrome P450 2D6) | Ki (Cytochrome P450 2D6) | IC50 [6] | IC50 [7]

COc1ccc([C@@H]2Sc3ccccc3N(CCN(C)C)C(=O)[C@@H]2OC(C)=O)cc1 [DILTIAZEM]
Not Active: IC50 [1] | Ki [1] | IC50 (Nitric oxide synthase 1) | IC50 (B2 bradykinin receptor) | IC50 [2] | IC50 (Adenosine receptor A3) | IC50 [3] | IC50 [4] | IC50 [5] | IC50 (Cytochrome P450 2D6) | Ki (Cytochrome P450 2D6) | IC50 [6] | IC50 [7]

C=C1CC[C@H](O)C/C1=C/C=C1\CCC[C@]2(C)[C@@H]([C@H](C)/C=C/[C@H](C)C(C)C)CC[C@@H]12 [ERGOCALCIFEROL]
Not Active: IC50 [1] | Ki [1] | IC50 (Nitric oxide synthase 1) | IC50 (B2 bradykinin receptor) | IC50 [2] | IC50 (Adenosine receptor A3) | IC50 [3] | IC50 [4] | IC50 [5] | IC50 (Cytochrome P450 2D6) | Ki (Cytochrome P450 2D6) | IC50 [6] | IC50 [7]

CN1C[C@H](C(=O)N[C@]2(C)O[C@@]3(O)[C@@H]4CCCN4C(=O)[C@H](Cc4ccccc4)N3C2=O)C=C2c3cccc4[nH]cc(c34)C[C@H]21 [ERGOTAMINE]
Not Active: IC50 [1] | Ki [1] | IC50 (Nitric oxide synthase 1) | IC50 (B2 bradykinin receptor) | IC50 [2] | IC50 (Adenosine receptor A3) | IC50 [3] | IC50 [4] | IC50 [5] | IC50 (Cytochrome P450 2D6) | Ki (Cytochrome P450 2D6) | IC50 [6] | IC50 [7]

CCc1cccc2c3c([nH]c12)C(CC)(CC(=O)O)OCC3 (stereo not drawn) [ETODOLAC]
Not Active: IC50 [1] | Ki [1] | IC50 (Nitric oxide synthase 1) | IC50 (B2 bradykinin receptor) | IC50 [2] | IC50 (Adenosine receptor A3) | IC50 [3] | IC50 [4] | IC50 [5] | IC50 (Cytochrome P450 2D6) | Ki (Cytochrome P450 2D6) | IC50 [6] | IC50 [7]

Cc1c(-c2ccccc2)oc2c(C(=O)OCCN3CCCCC3)cccc2c1=O [FLAVOXATE]
Not Active: IC50 [1] | Ki [1] | IC50 (Nitric oxide synthase 1) | IC50 (B2 bradykinin receptor) | IC50 [2] | IC50 (Adenosine receptor A3) | IC50 [3] | IC50 [4] | IC50 [5] | IC50 (Cytochrome P450 2D6) | Ki (Cytochrome P450 2D6) | IC50 [6] | IC50 [7]

Nc1nc(=O)[nH]cc1F [FLUCYTOSINE]
Not Active: IC50 [1] | Ki [1] | IC50 (Nitric oxide synthase 1) | IC50 (B2 bradykinin receptor) | IC50 [2] | IC50 (Adenosine receptor A3) | IC50 [3] | IC50 [4] | IC50 [5] | IC50 (Cytochrome P450 2D6) | Ki (Cytochrome P450 2D6) | IC50 [6] | IC50 [7]

O=C1OC2(c3ccc(O)cc3Oc3cc(O)ccc32)c2ccccc21 [FLUORESCEIN]
Not Active: IC50 [1] | Ki [1] | IC50 (Nitric oxide synthase 1) | IC50 (B2 bradykinin receptor) | IC50 [2] | IC50 (Adenosine receptor A3) | IC50 [3] | IC50 [4] | IC50 [5] | IC50 (Cytochrome P450 2D6) | Ki (Cytochrome P450 2D6) | IC50 [6] | IC50 [7]

CC(=O)[C@@]1(O)CC[C@H]2[C@@H]3C[C@H](C)C4=CC(=O)C=C[C@]4(C)[C@@]3(F)[C@@H](O)C[C@@]21C [FLUOROMETHOLONE]
Not Active: IC50 [1] | Ki [1] | IC50 (Nitric oxide synthase 1) | IC50 (B2 bradykinin receptor) | IC50 [2] | IC50 (Adenosine receptor A3) | IC50 [3] | IC50 [4] | IC50 [5] | IC50 (Cytochrome P450 2D6) | Ki (Cytochrome P450 2D6) | IC50 [6] | IC50 [7]

O=c1[nH]cc(F)c(=O)[nH]1 [FLUOROURACIL]
Not Active: IC50 [1] | Ki [1] | IC50 (Nitric oxide synthase 1) | IC50 (B2 bradykinin receptor) | IC50 [2] | IC50 (Adenosine receptor A3) | IC50 [3] | IC50 [4] | IC50 [5] | IC50 (Cytochrome P450 2D6) | Ki (Cytochrome P450 2D6) | IC50 [6] | IC50 [7]
